From US7253295B2, “Chloride channel opener” (Sucampo AG, priority 2001, dated 2007)
Where “and” joins values, the source holds several entries; their conditions need not be identical. Equal values may be shown once.

Tests used:
[1] = test system: Chloride Ion Transport into Lacrimal Fluid; assay: Chloride ion transport into lacrimal fluid in rabbits (Test Example 8); type: in vivo, male white rabbits
Protocol: Physiological saline, eye drops vehicle, or eye drops containing 0.0001% or 0.001% of Compound 1 was instilled to male white rabbits in the volume of 30 μL/eye. […] The collected lacrimal fluid was diluted five fold with distilled water, and the concentration of chloride ions was measured with a chloride counter (CL-7, Hiranuma Sangyo Co. Ltd.). Student's t-test and Wilcoxon's test were used in the comparison of the control group and the groups receiving Compound 1 in each dose. P values less than 0.05 were considered to be statistically significant.

16HBE14o- cells = assay: Short-circuit current in 16HBE14o- cells (Test Example 2); type: cell-based, Human; settings: 1 μM, 1% DMSO
Protocol: (§1) 16HBE14o- cells, a Human airway cell line derived from a healthy individual, which contain ClC-2 and the Cystic Fibrosis Transmembrane Regulator, Cl channel (CFTR); and CFBE41o- cells, a Human airway cell line derived from cystic fibrosis patients, which contain functional form of ClC-2 and defective form of CFTR (ΔF508 CFTR) were used. Both cells were cultured in MEM supplemented with 10% FBS (Hyclone), […] 1-glutamine and penicillin/streptomycin in flasks coated with fibronectin/collagen/BSA. When desired, the cells were plated on 0.3 cm^2 collagen-coated permeable filters (Biocoat). After 24 hrs, the apical medium was removed so that the cells were grown in air-water interface. While they were grown in air-water interface, the basolateral side of the cells was fed with the medium and the medium was changed every other day. The cells were allowed to grow to confluence.
Short-circuit current measurements were used to evaluate Cl transport in polarized, confluent cultures of the cells grown in air-water interface. A plexiglass chamber for short-circuit current measurements in confluent cell monolayers grown on the 0.3 cm^2 permeable support filters was used (World Precision Instruments, Sarasota, Fla.). Electrical measurements were made with a 7402C voltage clamp device (Bioengineering Department, Iowa University). The temperature was held constant at 37° C. by circulating heated water through the water jacket of the chamber. The output of the amplifier was plotted on an analog chart recorder. Changes in short-circuit current (Δlsc) after addition of test compounds were normalized to filter area (0.3 cm^2) and reported as ΔIsc/cm^2.
Short-circuit current measurements in the 16HBE14o- and CFBE41o- cells were carried out as described by Lofling et al. (Am J Physiol, 277(4 Pt 1):L700-8, 1999, the cited reference is herein incorporated by reference). […] Both solutions were bubbled with CO2/O2 (5%/95%), which also served to help mix the solutions. In all cases, the basolateral membrane was permeabilized with 200 μg/ml nystatin. […]

[2] = test system: Chloride Ion Transport into Intestinal Fluid; assay: Chloride ion transport into intestinal fluid of rats (Test Example 6); type: in vivo, male Wistar rats; settings: for Chloride Ion Concentration in Intestinal Fluid, Mean ± S.E.: 30 minutes after administration
Protocol: Compound 1 (13,14-dihydro-15-keto-16,16-difluoro-prostaglandin E1) of 1, 10 or 100 μg/kg in the volume of 5 mL/kg was orally administered to male Wistar rats (six weeks old, weight:180-210 g) that had been fasted for at least 16 hours. The control group received the same volume of vehicle (distilled water containing 0.5% ethanol and 0.01% polysorbate 80). Thirty minutes after the administration, the animals were subjected to laparotomy under ether anesthesia. The top portion of the duodenum and the end portion of the ileum were ligated respectively, and the bowel was extirpated. The intestinal fluid of each animal was collected and centrifuged by 10,000×g for 5 minutes. Supernatant was collected, and the concentration of chloride ion in the supernatant of intestinal fluid was measured with a chloride counter (CL-7, Hiranuma Sangyo Co., Ltd.). Dunnett's test was used in the comparison of the control group and the groups receiving Compound 1 in each dose. P values less than 0.05 were considered to be statistically significant.

T84 cells = assay: Short-circuit current in T84 cells (Test Example 5); type: cell-based, human; settings: 50 nM
Protocol: T84 cells, a human intestinal cell line, derived form confluent monolayers with tight junctions were used. Said cell line has been widely used in studies of Cl^− transport using short-circuit current (Isc). These cells contain both CFTR and ClC-2.
T84 human intestinal epithelial cells were grown to confluence at pH 7.4 in 162-cm^2 flasks (Corning Costar, Mass.) with a 1:1 mixture of Dulbecco's modified Eagle's medium and Ham's F-12 nutrient mixture supplemented with 6% fetal bovine serum (FBS), 15 mM HEPES, 14.3 mM NaHCO^3, and antibiotics/antimycotic. Flasks were passaged weekly and fed every 3 days. Cell monolayers for experiments were grown to confluence on collagen-coated permeable support (Biocoat). Monolayers were fed every 3 days and used after stable transepithelia resistance was achieved, c.a. 7-14 days post-plating.
According to the same manner as described in Example 2, Short-circuit current measurements in T84 cells were carried out. Changes in short-circuit current (ΔIsc) were normalized to filter area (0.3 cm^2) and reported as ΔIsc/cm^2.
Compound 1 was used at a final concentration of 50 nM.

CFBE41o- cells = assay: Short-circuit current in CFBE41o- cells (Test Example 2); type: cell-based, Human; settings: 1 μM, 1% DMSO
Protocol: as §1
Short-circuit current measurements were used to evaluate Cl transport in polarized, confluent cultures of the cells grown in air-water interface. A plexiglass chamber for short-circuit current measurements in confluent cell monolayers grown on the 0.3 cm^2 permeable support filters was used (World Precision Instruments, Sarasota, Fla.). Electrical measurements were made with a 7402C voltage clamp device (Bioengineering Department, Iowa University). […]

[3] = test system: Chloride Ion Transport into Bile; assay: Chloride ion transport into bile in rats (Test Example 7); type: in vivo, male Wistar rats
Protocol: Compound 2 (13,14-dihydro-15-keto-16,16- difluoro-18(S)-methyl-prostaglandin E1) of 100 μg/kg was orally administered to male Wistar rats (six weeks old, weight:180-210 g) three times a day for seven days. The control group (n=7) received the same volume of vehicle (distilled water containing 0.01% polysorbate 80 and 0.5% ethanol). In the following morning of the final administration day (about 17 hours after the final administration), a polyethylene catheter (PE10, Becton Dickinson and Company) was inserted in the rats' choledoch under ether anesthesia. The rats were placed into Borrmann's cages and were left for 1 hour to awake from anesthesia. Bile discharged in one hour, from one to two hours after the insertion of the catheter, was collected and the concentration of chloride ion in the bile was measured with a chloride counter (CL-7, Hiranuma Sangyo Co., Ltd.). Student's t-test was used in the comparison of the control group and the group receiving Compound 2. P values less than 0.05 were considered to be statistically significant.

CCCCC(F)(F)[C@@]1(O)CC[C@H]2[C@@H](CC(=O)[C@@H]2CCCCCCC(=O)O)O1 [Compound 1, (−)-7-[(2R,4aR,5R,7aR)-2-(1,1-difluoropentyl)-2-hydroxy-6-oxoperhydrocyclopenta[b]pyran-5-yl]heptanoic acid]
Effect on concentration of chloride ions in the lacrimal fluid (in words) ([1]; 0.0001% and 0.001% eye drops, compared with control group): increased the concentration of chloride ions in the lacrimal fluid in a dose-dependant manner | Chloride Ion Concentration in lacrimal fluid, Mean ± S.E. ([1]; 0.0001% eye drops, 30 μL/eye, Pre (0 hour)): 136.7 ± 3.6 mEq/L | Chloride Ion Concentration in lacrimal fluid, Mean ± S.E. ([1]; 0.0001% eye drops, 2 hr after instillation): 123.4 ± 5.2 mEq/L | Chloride Ion Concentration in lacrimal fluid, Mean ± S.E. ([1]; 0.0001% eye drops, 4 hr after instillation): 136.8 ± 2.3 mEq/L | Chloride Ion Concentration in lacrimal fluid, Mean ± S.E. ([1]; 0.0001% eye drops, 6 hr after instillation): 136.8 ± 2.0 mEq/L | Chloride Ion Concentration in lacrimal fluid, Mean ± S.E. ([1]; 0.0001% eye drops, 8 hr after instillation): 140.8 ± 2.8 mEq/L | Chloride Ion Concentration in lacrimal fluid, Mean ± S.E. ([1]; 0.001% eye drops, 30 μL/eye, Pre (0 hour)): 135.4 ± 4.0 mEq/L | Chloride Ion Concentration in lacrimal fluid, Mean ± S.E. ([1]; 0.001% eye drops, 2 hr after instillation): 152.9 ± 7.7^[##] mEq/L | Chloride Ion Concentration in lacrimal fluid, Mean ± S.E. ([1]; 0.001% eye drops, 4 hr after instillation): 151.4 ± 2.9 mEq/L | Chloride Ion Concentration in lacrimal fluid, Mean ± S.E. ([1]; 0.001% eye drops, 6 hr after instillation): 138.9 ± 3.3 mEq/L | Chloride Ion Concentration in lacrimal fluid, Mean ± S.E. ([1]; 0.001% eye drops, 8 hr after instillation): 138.8 ± 1.6 mEq/L | Short-Circuit Current (change) (16HBE14o- cells): 9.56±0.095 μA/cm^2 and 9.56 ± 0.95 μA/cm^2 | Chloride Ion Concentration in Intestinal Fluid, Mean ± S.E. ([2]; 1 μg/kg P.O.): 82.2 ± 7.0 mEq/L | Chloride Ion Concentration in Intestinal Fluid, Mean ± S.E. ([2]; 10 μg/kg P.O.): 110.1 ± 5.6 mEq/L | Chloride Ion Concentration in Intestinal Fluid, Mean ± S.E. ([2]; 100 μg/kg P.O.): 126.6 ± 2.4 mEq/L | Effect on concentration of chloride ions in the bowel (in words) ([2]; 1, 10 and 100 μg/kg P.O.): increased the concentration of chloride ions in the bowel in a dose-dependant manner | Effect on Cl− transport in T84 cells (in words) (T84 cells): activated Cl^− transport | Changes in short-circuit currents (Δlsc) (T84 cells; T84 cells): 56.5 μA/cm^2 | Short-Circuit Current (change) (CFBE41o- cells): 5.0±0.04 μA/cm^2 and 5.0 ± 0.4 μA/cm^2

CC[C@H](C)CC(F)(F)C(=O)CC[C@H]1[C@H](O)CC(=O)[C@@H]1CCCCCCC(=O)O [Compound 2, 13,14-dihydro-15-keto-16,16-difluoro-18(S)-Methyl-PGE1]
Effect on concentration of chloride ions in the bile (in words) ([3]; 100 μg/kg P.O. t.i.d. 7 days, compared with control group): increased significantly | Chloride Ion Concentration in Bile, Mean ± S.E. ([3]; 100 μg/kg P.O., t.i.d. for 7 days, about 17 hours after final administration): 98.4 ± 1.8 mEq/L | Short-Circuit Current (change) (16HBE14o- cells): 11.6±1.3 μA/cm^2 | Short-Circuit Current (change) (16HBE14o- cells; listed as compound 2): 11.6 ± 1.3 μA/cm^2
